Data published in patent publication US20240239752A1, “BICYCLIC HETEROAROMATIC INHIBITORS OF KLK5” (BioCryst Pharmaceuticals, Inc., priority 2021, published 2024).

biological target: T1, recombinant human KLK5 (Homo sapiens, UniProt Q9Y337); experiment: Kallikrein (KLK) 5 enzymatic assay (Boc-VPR-AMC fluorogenic substrate); type: biochemical; conditions: recombinant human KLK5 0.1 μg/well, Boc-VPR-AMC 100 μM, pH 7.5, room temperature, 1% DMSO; tested a minimum of three times
T1 construct: purchased Novoprotein or R&D Systems C415 or 1108-SE
T1 sequence (Q9Y337 23-293): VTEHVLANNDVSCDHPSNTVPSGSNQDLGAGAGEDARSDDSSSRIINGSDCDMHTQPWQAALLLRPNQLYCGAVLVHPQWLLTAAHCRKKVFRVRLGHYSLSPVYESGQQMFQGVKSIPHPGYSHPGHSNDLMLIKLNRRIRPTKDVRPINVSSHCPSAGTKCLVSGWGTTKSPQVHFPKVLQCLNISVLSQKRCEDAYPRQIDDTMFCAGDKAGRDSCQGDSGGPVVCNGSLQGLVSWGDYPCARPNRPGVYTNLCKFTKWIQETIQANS
Summary of the method: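 Recombinant human KLK5 (0.1 μg/well) was preincubated with compound at room temperature in 0.1 M NaH2PO4, pH 7.5, 1% DMSO, then started with 100 μM Boc-VPR-AMC. The rate was followed at 380/460 nm, and IC50 came from percent inhibition relative to enzyme alone, with at least three runs.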

Row | SMILES | IC50
1 | CC(C)CCN1CC(Cn2nc(COc3ccccc3CC(=O)O)c3cc(-c4ccc5ccnc(N)c5c4)ccc32)C1 [Compound 307c, 2-(2-((5-(1-aminoisoquinolin-7-yl)-1-((1-isopentylazetidin-3-yl)methyl)-1H-indazol-3-yl)methoxy)phenyl)acetic acid] | < 1000 nM
2 | CC(C)CCN1CC(Cn2nc(COc3ccccc3CC(=O)O)c3cc(-c4cccc5c(N)nccc45)ccc32)C1 [Compound 308b, 2-(2-((5-(1-aminoisoquinolin-5-yl)-1-((1-isopentylazetidin-3-yl)methyl)-1H-indazol-3-yl)methoxy)phenyl)acetic acid] | < 1000 nM
3 | CC(C)CCN1CCC(n2nc(COc3ccccc3CC(=O)O)c3cc(-c4ccc5ccnc(N)c5c4)ccc32)C1 (centres unmarked) [Compound 309c, 2-(2-((5-(1-aminoisoquinolin-7-yl)-1-(1-isopentylpyrrolidin-3-yl)-1H-indazol-3-yl)methoxy)phenyl)acetic acid] | < 1000 nM
4 | CCOC(=O)N1CCC(n2nc(COc3ccccc3CC(=O)O)c3cc(-c4ccc5ccnc(N)c5c4)ccc32)C1 (centres unmarked) [Compound 310c, 2-(2-((5-(1-aminoisoquinolin-7-yl)-1-(1-(ethoxycarbonyl)pyrrolidin-3-yl)-1H-indazol-3-yl)methoxy)phenyl)acetic acid] | < 1000 nM
5 | CCOC(=O)N1CCC(n2nc(COc3ccccc3CC(=O)O)c3cc(-c4cccc5c(N)nccc45)ccc32)C1 (centres unmarked) [Compound 311b, 2-(2-((5-(1-aminoisoquinolin-5-yl)-1-(1-(ethoxycarbonyl)pyrrolidin-3-yl)-1H-indazol-3-yl)methoxy)phenyl)acetic acid] | < 1000 nM
6 | CCS(=O)(=O)N1CCC(n2nc(COc3ccccc3CC(=O)O)c3cc(-c4ccc5ccnc(N)c5c4)ccc32)C1 (centres unmarked) [Compound 312c, 2-(2-((5-(1-aminoisoquinolin-7-yl)-1-(1-(ethylsulfonyl)pyrrolidin-3-yl)-1H-indazol-3-yl)methoxy)phenyl)acetic acid] | < 1000 nM
7 | CCS(=O)(=O)N1CCC(n2nc(COc3ccccc3CC(=O)O)c3cc(-c4cccc5c(N)nccc45)ccc32)C1 (centres unmarked) [Compound 313b, 2-(2-((5-(1-aminoisoquinolin-5-yl)-1-(1-(ethylsulfonyl)pyrrolidin-3-yl)-1H-indazol-3-yl)methoxy)phenyl)acetic acid] | < 1000 nM
8 | COc1c(CN)cccc1-c1cc(OC)c2occ(COc3ccccc3CC(=O)O)c2c1 [Compound 324d, 2-(2-((5-(3-(aminomethyl)-2-methoxyphenyl)-7-methoxybenzofuran-3-yl)methoxy)phenyl)acetic acid] | > 10000 nM
9 | COc1c(CN)cccc1-c1ccc2c(c1)c(COc1ccccc1CC(=O)O)nn2C(C)C [Compound 325b, 2-(2-((5-(3-(aminomethyl)-2-methoxyphenyl)-1-isopropyl-1H-indazol-3-yl)methoxy)phenyl)acetic acid] | < 1000 nM
10 | COc1c(-c2ccc3c(c2)c(COc2ccccc2CC(=O)O)nn3C(C)C)ccnc1CN [Compound 326d, 2-(2-((5-(2-(aminomethyl)-3-methoxypyridin-4-yl)-1-isopropyl-1H-indazol-3-yl)methoxy)phenyl)acetic acid] | < 1000 nM
11 | COc1c(-c2ccc3c(c2)c(COc2ccccc2CC(=O)O)nn3C2CCCC2)ccnc1CN [Compound 327d, 2-(2-((5-(2-(aminomethyl)-3-methoxypyridin-4-yl)-1-cyclopentyl-1H-indazol-3-yl)methoxy)phenyl)acetic acid] | < 1000 nM
12 | COc1c(-c2ccc3c(c2)c(COc2ccccc2CC(=O)O)nn3C2CCC2)ccnc1CN [Compound 328d, 2-(2-((5-(2-(aminomethyl)-3-methoxypyridin-4-yl)-1-cyclobutyl-1H-indazol-3-yl)methoxy)phenyl)acetic acid] | 1000 to 10000 nM
13 | COc1c(-c2cc3c(COc4ccccc4CC(=O)O)cccc3o2)ccnc1CN [Compound 329d, 2-(2-((2-(2-(aminomethyl)-3-methoxypyridin-4-yl)benzofuran-4-yl)methoxy)phenyl)acetic acid] | 1000 to 10000 nM
14 | CCOC(=O)N1CC[C@@H](n2nc(COc3ccccc3CC(=O)O)c3cc(-c4cccc5c(N)nccc45)ccc32)C1 [Compound 340i, (R)-2-(2-((5-(1-aminoisoquinolin-5-yl)-1-(1-(ethoxycarbonyl)pyrrolidin-3-yl)-1H-indazol-3-yl)methoxy)phenyl)acetic acid] | < 1000 nM
15 | CCOC(=O)N1CC[C@@H](n2nc(COc3cccc(C)c3CC(=O)O)c3cc(-c4cccc5c(N)nccc45)ccc32)C1 [Compound 341e, (R)-2-(2-((5-(1-aminoisoquinolin-5-yl)-1-(1-(ethoxycarbonyl)pyrrolidin-3-yl)-1H-indazol-3-yl)methoxy)-6-methylphenyl)acetic acid] | < 1000 nM
16 | CCOC(=O)N1CC[C@@H](n2nc(COc3ccccc3CC(=O)O)c3cc(-c4ccc5ccnc(N)c5c4)ccc32)C1 [Compound 342b, (R)-2-(2-((5-(1-aminoisoquinolin-7-yl)-1-(1-(ethoxycarbonyl)pyrrolidin-3-yl)-1H-indazol-3-yl)methoxy)phenyl)acetic acid] | < 1000 nM
17 | CCOC(=O)N1CC[C@H](n2nc(COc3cccc(C)c3CC(=O)O)c3cc(-c4ccc5ccnc(N)c5c4)ccc32)C1 [Compound 343i, (S)-2-(2-((5-(1-aminoisoquinolin-7-yl)-1-(1-(ethoxycarbonyl)pyrrolidin-3-yl)-1H-indazol-3-yl)methoxy)-6-methylphenyl)acetic acid] | < 1000 nM
18 | CCOC(=O)N1CC[C@H](n2nc(COc3cccc(C)c3CC(=O)O)c3cc(-c4cccc5c(N)nccc45)ccc32)C1 [Compound 344b, (S)-2-(2-((5-(1-aminoisoquinolin-5-yl)-1-(1-(ethoxycarbonyl)pyrrolidin-3-yl)-1H-indazol-3-yl)methoxy)-6-methylphenyl)acetic acid] | < 1000 nM
19 | CCOC(=O)N1CC[C@H](n2nc(COc3ccccc3CC(=O)O)c3cc(-c4cccc5c(N)nccc45)ccc32)C1 [Compound 345e, (S)-2-(2-((5-(1-aminoisoquinolin-5-yl)-1-(1-(ethoxycarbonyl)pyrrolidin-3-yl)-1H-indazol-3-yl)methoxy)phenyl)acetic acid] | < 1000 nM
20 | CCOC(=O)N1CC[C@H](n2nc(COc3ccccc3CC(=O)O)c3cc(-c4ccc5ccnc(N)c5c4)ccc32)C1 [Compound 346b, (S)-2-(2-((5-(1-aminoisoquinolin-7-yl)-1-(1-(ethoxycarbonyl)pyrrolidin-3-yl)-1H-indazol-3-yl)methoxy)phenyl)acetic acid] | < 1000 nM
21 | CC(C)(C)OC(=O)N1CCC2(CC1)CC(Oc1ccccc1CC(=O)O)c1cc(-c3cccc4c(N)nccc34)ccc12 (centres unmarked) [Compound 347d, 2-(2-((5-(1-aminoisoquinolin-5-yl)-1′-(tert-butoxycarbonyl)-2,3-dihydrospiro[indene-1,4′-piperidin]-3-yl)oxy)phenyl)acetic acid] | < 1000 nM
22 | CC(C)(C)OC(=O)N1CCC2(CC1)CC(Oc1ccccc1CC(=O)O)c1cc(-c3ccc4ccnc(N)c4c3)ccc12 (centres unmarked) [Compound 348b, 2-(2-((5-(1-aminoisoquinolin-7-yl)-1′-(tert-butoxycarbonyl)-2,3-dihydrospiro[indene-1,4′-piperidin]-3-yl)oxy)phenyl)acetic acid] | < 1000 nM
23 | CCOC(=O)N1CCC2(CC1)CC(Oc1ccccc1CC(=O)O)c1cc(-c3ccc4ccnc(N)c4c3)ccc12 (centres unmarked) [Compound 349d, 2-(2-((5-(1-aminoisoquinolin-7-yl)-1′-(ethoxycarbonyl)-2,3-dihydrospiro[indene-1,4′-piperidin]-3-yl)oxy)phenyl)acetic acid] | < 1000 nM
24 | Nc1nccc2ccc(-c3ccc4c(c3)C(Oc3ccccc3CC(=O)O)CC43CCOCC3)cc12 (centres unmarked) [Compound 350h, 2-(2-((5-(1-aminoisoquinolin-7-yl)-2,2′,3,3′,5′,6′-hexahydrospiro[indene-1,4′-pyran]-3-yl)oxy)phenyl)acetic acid] | < 1000 nM
25 | Nc1nccc2c(-c3ccc4c(c3)C(Oc3ccccc3CC(=O)O)CC43CCOCC3)cccc12 (centres unmarked) [Compound 351b, 2-(2-((5-(1-aminoisoquinolin-5-yl)-2,2′,3,3′,5′,6′-hexahydrospiro[indene-1,4′-pyran]-3-yl)oxy)phenyl)acetic acid] | < 1000 nM
26 | Cc1cccc(OC2CC3(CCOCC3)c3ccc(-c4ccc5ccnc(N)c5c4)cc32)c1CC(=O)O (centres unmarked) [Compound 352c, 2-(2-((5-(1-aminoisoquinolin-7-yl)-2,2′,3,3′,5′,6′-hexahydrospiro[indene-1,4′-pyran]-3-yl)oxy)-6-methylphenyl)acetic acid] | < 1000 nM
27 | Cc1cccc(OC2CC3(CCOCC3)c3ccc(-c4cccc5c(N)nccc45)cc32)c1CC(=O)O (centres unmarked) [Compound 353b, 2-(2-((5-(1-aminoisoquinolin-5-yl)-2,2′,3,3′,5′,6′-hexahydrospiro[indene-1,4′-pyran]-3-yl)oxy)-6-methylphenyl)acetic acid] | < 1000 nM
28 | Nc1nccc2c(-c3ccc4c(c3)C(Oc3ccccc3CC(=O)O)CC43CCCC3)cccc12 (centres unmarked) [Compound 354f, 2-(2-((5′-(1-aminoisoquinolin-5-yl)-2′,3′-dihydrospiro[cyclopentane-1,1′-inden]-3′-yl)oxy)phenyl)acetic acid] | < 1000 nM
29 | Nc1nccc2ccc(-c3ccc4c(c3)C(Oc3ccccc3CC(=O)O)CC43CCCC3)cc12 (centres unmarked) [Compound 355b, 2-(2-((5′-(1-aminoisoquinolin-7-yl)-2′,3′-dihydrospiro[cyclopentane-1,1′-inden]-3′-yl)oxy)phenyl)acetic acid] | < 1000 nM
